Source: patent publication US11207312B2, “Metallo-beta-lactamase inhibitors and methods of use thereof” (priority 2017, dated 2021)

What was measured:
NDM-1 = NDM-1 (Klebsiella pneumoniae, UniProt C7C422); assay: biochemical; type: biochemical; details: CCF2-FA fluorescence assay, 2 hours at 25° C.
In short: (§1)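 Buffer 100 mM KH2PO4 pH 7, 0.005% Tween-20, 10 μM ZnSO4. NDM-1 1 pM, IMP-1 2 pM, VIM-1 30 pM final; CCF2-FA 1.25 μM. Cpd 20–0.00063 μM, 2 h, 25° C. Ex 405/Em 460 nm; IC50 via 4-parameter curve.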

IMP-1 = IMP-1 (Serratia marcescens, UniProt P52699); assay: biochemical; details: CCF2-FA fluorescence assay, 2 hours at 25° C.; read-out: IMP1 IC50
Sequence of IMP-1 (P52699 whole entry, looked up, species assumed): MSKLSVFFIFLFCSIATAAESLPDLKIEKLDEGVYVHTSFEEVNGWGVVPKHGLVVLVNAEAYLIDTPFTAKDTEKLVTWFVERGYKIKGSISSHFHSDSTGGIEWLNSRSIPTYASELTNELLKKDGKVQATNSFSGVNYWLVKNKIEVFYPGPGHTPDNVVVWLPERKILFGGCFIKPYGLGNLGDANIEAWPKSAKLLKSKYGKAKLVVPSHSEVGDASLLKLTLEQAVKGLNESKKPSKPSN
In short: as §1

VIM-1 = VIM-1 (Pseudomonas aeruginosa (strain ATCC 15692 / DSM 22644 / CIP 104116 / JCM 14847 / LMG 12228 / 1C / PRS 101 / PAO1), UniProt A0A0F7KYQ8); assay: biochemical; details: CCF2-FA fluorescence assay, 2 hours at 25° C.; read-out: VIM1 IC50
In short: as §1

VIM-2 = VIM-2 (Escherichia coli, UniProt Q5U7L7); assay: biochemical; details: CCF2-FA fluorescence assay; read-out: VIM2 IC50
[1] = test system: Escherichia coli expressing NDM-1 (CLB30016); type: cell-based; details: with imipenem 1 μg/ml; 95% inhibition of bacterial growth
In short: (§2)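 Each strain, diluted 1:100 from saline suspension into 1.1× CAMHB, was combined with imipenem held at 1 μg/ml and graded inhibitor. Growth after 22–24 h at 35 °C was measured by absorbance, and the lowest concentration achieving 95% inhibition defined MITC95.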

[2] = test system: Klebsiella pneumoniae expressing VIM-1 (IHMA599644); type: cell-based; details: with imipenem 1 μg/ml; 95% inhibition of bacterial growth
In short: as §2

[3] = test system: Serratia marcescens expressing IMP-1 (CL5741); type: cell-based; details: with imipenem 1 μg/ml; 95% inhibition of bacterial growth
In short: as §2

[4] = test system: P. aeruginosa MB9798 (efflux+, IMP-1 plasmid); details: for MB9798 MITC95 P. aeruginosa uM Efflux WT: efflux + (MB9798) strain, imipenem at 2 μg/mL, in the presence of a class A, C, D serine β-lactamase inhibitor closely related to relebactam; for Efflux ratio: fold difference between efflux+ (MB9798) and efflux− (MB9799) strains
In short: (§3)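 PAO1-derived isogenic pair (oprD+, inducible AmpC), efflux+ MB5919 or efflux− MB5890 parent, carrying an electroporated IMP-1 plasmid from a clinical isolate. Microbroth MIC with fixed imipenem and/or ceftazidime (usually CLSI breakpoint) plus fixed class A/C inhibitor; MBL inhibitor serially titrated, concentration restoring susceptibility recorded.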

[5] = test system: P. aeruginosa MB9799 (efflux-, IMP-1 plasmid); type: cell-based, Pseudomonas aeruginosa; details: efflux − (MB9799) strain; imipenem at 2 μg/mL; in the presence of a class A, C, D serine β-lactamase inhibitor closely related to relebactam
In short: as §3

Sequence of NDM-1 (C7C422 whole entry, looked up, species assumed): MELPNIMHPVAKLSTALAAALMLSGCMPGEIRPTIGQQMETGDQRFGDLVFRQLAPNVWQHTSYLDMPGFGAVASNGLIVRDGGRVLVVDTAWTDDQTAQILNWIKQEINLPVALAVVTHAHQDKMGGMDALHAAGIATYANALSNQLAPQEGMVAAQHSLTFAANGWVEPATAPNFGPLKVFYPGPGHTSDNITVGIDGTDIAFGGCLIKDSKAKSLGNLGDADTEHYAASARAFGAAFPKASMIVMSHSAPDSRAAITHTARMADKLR

Row | SMILES | IC50 (NDM-1) | IC50 (IMP-1) | IC50 (VIM-1) | IC50 (VIM-2) | CLB30016 E. coli MITC95 NDM [1] | IHMA599644 K. pneumoniae MITC95 VIM [2] | CL5741 S. marcescens MITC95 IMP [3] | MB9798 MITC95 P. aeruginosa uM Efflux WT [4] | Efflux ratio [4] | MB9799 MITC95 P. aeruginosa uM Efflux Mutant [5]
1 | NS(=O)(=O)c1c(S(=O)(=O)N[C@@H]2CCNC2)ccc(N2CCC(CCO)C2)c1-c1nnn[nH]1 (stereo partly drawn) [Example 81, 4-[3-(2-hydroxyethyl)pyrrolidin-1-yl]-N1-[(3R)-pyrrolidin-3-yl]-3-(1H-tetrazol-5-yl)benzene-1,2-disulfonamide] | 0.64 nM | 0.62 nM | 0.51 nM | 1 nM | 3.13 µM | 6.25 µM | 3.13 µM | 6.25 µM | 2.00 | 3.13 µM
2 | NC[C@H]1CCCN(c2ccc(S(=O)(=O)N[C@@H]3CCNC3)c(S(N)(=O)=O)c2-c2nnn[nH]2)C1 [Example 82, 4-[(3R)-3-(aminomethyl)piperidin-1-yl]-N1-[(3R)-pyrrolidin-3-yl]-3-(1H-tetrazol-5-yl)benzene-1,2-disulfonamide] | 42.9 nM | 45.6 nM | 0.9 nM | 9.33 nM | 0.78 µM | 0.78 µM | 0.78 µM | 6.25 µM | 2.00 | 3.13 µM
3 | CC(=O)N[C@H]1CCN(c2ccc(S(=O)(=O)N[C@@H]3CCNC3)c(S(N)(=O)=O)c2-c2nnn[nH]2)C1 [Example 83, N-[(3S)-1-{4-[(3R)-pyrrolidin-3-ylsulfamoyl]-3-sulfamoyl-2-(1H-tetrazol-5-yl)phenyl}pyrrolidin-3-yl]acetamide] | 4.98 nM | 15.9 nM | 2.11 nM | 2.82 nM | 6.25 µM | 12.50 µM | 3.13 µM | 12.50 µM | 4.00 | 3.13 µM
4 | NC1(CO)CCN(c2ccc(S(=O)(=O)N[C@@H]3CCNC3)c(S(N)(=O)=O)c2-c2nnn[nH]2)C1 (stereo partly drawn) [Example 84, 4-[3-amino-3-(hydroxymethyl)pyrrolidin-1-yl]-N1-[(3R)-pyrrolidin-3-yl]-3-(1H-tetrazol-5-yl)benzene-1,2-disulfonamide] | 19.7 nM | 33 nM | 7.27 nM | 46.9 nM | 0.78 µM | 1.56 µM | 1.56 µM | 6.25 µM | 4.00 | 1.56 µM
5 | NCC1(O)CCN(c2ccc(S(=O)(=O)N[C@@H]3CCNC3)c(S(N)(=O)=O)c2-c2nnn[nH]2)CC1 [Example 85, 4-[4-(aminomethyl)-4-hydroxypiperidin-1-yl]-N1-[(3R)-pyrrolidin-3-yl]-3-(1H-tetrazol-5-yl)benzene-1,2-disulfonamide] | 3.15 nM | 9.94 nM | 2.13 nM | 23.7 nM | 0.78 µM | 1.56 µM | 1.56 µM | 1.56 µM | 2.00 | 0.78 µM
6 | N[C@@H]1CCCN(c2ccc(S(=O)(=O)N[C@@H]3CCNC3)c(S(N)(=O)=O)c2-c2nnn[nH]2)C1 [Example 86, 4-[(3R)-3-aminopiperidin-1-yl]-N1-[(3R)-pyrrolidin-3-yl]-3-(1H-tetrazol-5-yl)benzene-1,2-disulfonamide] | 1.37 nM | 58.8 nM | 3.83 nM | 14 nM | 0.39 µM | 1.56 µM | 1.56 µM | 12.50 µM | 8.00 | 1.56 µM
7 | NS(=O)(=O)c1c(S(=O)(=O)N[C@@H]2CCNC2)ccc(N2CCC(CCF)CC2)c1-c1nnn[nH]1 [Example 87, 4-[4-(2-fluoroethyl)piperidin-1-yl]-N1-[(3R)-pyrrolidin-3-yl]-3-(1H-tetrazol-5-yl)benzene-1,2-disulfonamide] | 0.16 nM | 0.24 nM | 0.12 nM | 0.49 nM | 1.56 µM | 3.13 µM | 3.13 µM | 12.50 µM | 8.00 | 1.56 µM
8 | NS(=O)(=O)c1c(S(=O)(=O)N[C@@H]2CCNC2)ccc(N2CCC(OCCO)CC2)c1-c1nnn[nH]1 [Example 88, 4-[4-(2-hydroxyethoxy)piperidin-1-yl]-N1-[(3R)-pyrrolidin-3-yl]-3-(1H-tetrazol-5-yl)benzene-1,2-disulfonamide] | 0.08 nM | 0.13 nM | 0.19 nM | 0.97 nM | 12.50 µM | 12.50 µM | 12.50 µM | 6.25 µM | 1.00 | 6.25 µM
9 | NS(=O)(=O)c1c(S(=O)(=O)N[C@@H]2CCNC2)ccc(N2CCC(CF)CC2)c1-c1nnn[nH]1 [Example 89, 4-[4-(fluoromethyl)piperidin-1-yl]-N1-[(3R)-pyrrolidin-3-yl]-3-(1H-tetrazol-5-yl)benzene-1,2-disulfonamide] | 0.21 nM | 0.61 nM | 0.21 nM | 0.66 nM | 1.56 µM | 12.50 µM | 3.13 µM | 3.13 µM | 2.00 | 1.56 µM
10 | NS(=O)(=O)c1c(S(=O)(=O)N[C@@H]2CCNC2)ccc(N2CCC(C(F)F)CC2)c1-c1nnn[nH]1 [Example 90, 4-[4-(difluoromethyl)piperidin-1-yl]-N1-[(3R)-pyrrolidin-3-yl]-3-(1H-tetrazol-5-yl)benzene-1,2-disulfonamide] | 0.43 nM | 0.77 nM | 0.34 nM | 1.02 nM | 3.13 µM | 3.13 µM | 3.13 µM | 6.25 µM | 4.00 | 1.56 µM
11 | NS(=O)(=O)c1c(S(=O)(=O)N[C@@H]2CCNC2)ccc(N2CCC(F)(CO)CC2)c1-c1nnn[nH]1 [Example 91, 4-[4-fluoro-4-(hydroxymethyl)piperidin-1-yl]-N1-[(3R)-pyrrolidin-3-yl]-3-(1H-tetrazol-5-yl)benzene-1,2-disulfonamide] | 0.42 nM | 1.26 nM | 0.47 nM | 1.65 nM | 3.13 µM | 6.25 µM | 3.13 µM | 3.13 µM | 2.00 | 1.56 µM
